Test: Release of THC from straw coating as water is drawn through the straw (Example 5)
Assay type: physicochemical
Conditions: after 220 ml of water passes through the straw over 30 minutes; composite of six straws
Procedure: A study was performed to determine how long it takes for […] to be released from the coating as a liquid is drawn through the coated straw, and to determine how much liquid is required to achieve the full dose of the active ingredient.
The volume of dispersion required to achieve a 10 mg dose of THC was calculated. A pipette was calibrated to ensure that it dispenses the correct amount of dispersion to achieve the desired dose, and then it was loaded with the appropriate amount of the dispersion.
The calculated amount of dispersion was injected using the pipette into PFTA sugarcane straws. The dispersion was allowed to gradually coat the inside of each straw by arranging them vertically. Care was taken to not allow the dispersion to come out of the bottom of the straws.
Straws were dried by taping them horizontally to a tray using food-grade mylar and placing the tray into a convection oven at 55° C. for approximately 60 minutes or until dispersion was visibly dry. Straws were checked every 30 minutes. Once the straws were dry, they were removed from the oven and allowed to cool.
For each straw, a syringe was affixed to the end of a prepared coated straw. The opposing end of the straw was placed in a beaker of deionized water. […]

CCCCCc1cc(O)c2c(c1)OC(C)(C)[C@@H]1CCC(C)=C[C@@H]21 [THC, (6aR,10aR)-6,6,9-trimethyl-3-pentyl-6a,7,8,10a-tetrahydro-6H-benzo[c]chromen-1-ol]
THC released from the coating: approximately 60%
